Residues, ends and D or L forms follow the SMILES beside them. No end group written: not given here. *: point of attachment. Palmitoyl = CCCCCCCCCCCCCCCC(=O)*
Columns and labels:
BALB/c mice = type: in vivo
Method: Specifically, the DAS values for Palmitoyl-L3-37 in Example 18 were evaluated. […]; and a group treated with a saline solution (sterilized 0.9% NaCl) or 70 μg/kg bungarotoxin as a control group. Then, palmitoyl-L3-37 and the saline solution or bungarotoxin at the concentrations as above were injected each 50 μl into the hind thigh muscles of mice. Thereafter, the mice weight and the sole of the injected portion were observed and recorded every day, and the results are shown in FIGS. 37 to 39.

AchR [1] = biological target: T1, AchR (Homo sapiens, UniProt P02708); test: ELISA of screened peptide phages on AchR versus streptavidin (OD450); type: binding; details: absorbance at 450 nm
Method in brief: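 Reported as the ratio of AchR to streptavidin OD450, with TMB read-out after HRP anti-M13 detection. Wells coated with 5 μg/ml target overnight at 4 °C and BSA-blocked, then incubated 1 h at 30 °C with helper-rescued phage from individual plaques.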
Target sequence in this assay (P02708 21-457): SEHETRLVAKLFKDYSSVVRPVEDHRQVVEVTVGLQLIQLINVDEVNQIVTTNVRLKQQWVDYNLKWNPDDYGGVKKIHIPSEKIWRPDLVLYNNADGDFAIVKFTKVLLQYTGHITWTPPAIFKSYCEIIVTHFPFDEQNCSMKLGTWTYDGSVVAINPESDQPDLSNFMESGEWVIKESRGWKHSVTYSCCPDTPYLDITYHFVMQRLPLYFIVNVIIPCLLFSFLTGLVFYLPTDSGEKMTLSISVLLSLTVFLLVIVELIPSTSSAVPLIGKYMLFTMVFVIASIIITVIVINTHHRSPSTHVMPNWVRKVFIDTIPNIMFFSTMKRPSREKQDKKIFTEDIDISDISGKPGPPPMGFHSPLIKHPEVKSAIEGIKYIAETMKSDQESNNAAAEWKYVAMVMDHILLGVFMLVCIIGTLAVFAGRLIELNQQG

[2] = biological target: Acetylcholine receptor proteins (AchR) (Homo sapiens, UniProt P02708); type: binding
Method: Spep-1 to Spep-11 selected in Example 1 were synthesized, and the AchR binding affinity was compared thereamong using a surface plasmon resonance (SPR) analyzer (Biacore3000, Biacore A, Sweden). […]
The treatment concentrations of Spep-2 were 0.12 to 1 μM, and the dissociation constant was compared while Synake was used as a positive control.

TE671 cells = test system: TE671 cells
Method: To evaluate the toxicity of Spep-1 and Spep-2, WST Assay was performed on TE671 cells.

AchR [3] = biological target: T1, AchR; test: cell-based; type: cell-based; design: endogenous in cells; host or cells: TE671; details: for AchR inhibitory effect: acetylcholine treatment
Target sequence in this assay (P02708 21-457): as above
Target sequence in this assay (Q07001 22-517, further chain): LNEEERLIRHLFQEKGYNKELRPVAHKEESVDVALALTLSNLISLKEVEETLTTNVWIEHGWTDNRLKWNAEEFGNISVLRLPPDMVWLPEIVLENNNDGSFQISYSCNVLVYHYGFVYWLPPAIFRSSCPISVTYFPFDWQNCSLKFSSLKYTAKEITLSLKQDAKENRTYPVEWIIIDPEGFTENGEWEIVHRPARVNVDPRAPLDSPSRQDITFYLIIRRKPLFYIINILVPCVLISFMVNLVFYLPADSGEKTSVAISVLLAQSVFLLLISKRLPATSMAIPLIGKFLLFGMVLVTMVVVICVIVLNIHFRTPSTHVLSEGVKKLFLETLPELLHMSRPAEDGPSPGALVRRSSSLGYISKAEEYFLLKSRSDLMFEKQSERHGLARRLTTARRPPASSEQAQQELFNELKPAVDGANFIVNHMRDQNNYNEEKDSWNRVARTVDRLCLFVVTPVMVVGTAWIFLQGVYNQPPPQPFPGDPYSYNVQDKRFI
Target sequence in this assay (P07510 23-517, further chain): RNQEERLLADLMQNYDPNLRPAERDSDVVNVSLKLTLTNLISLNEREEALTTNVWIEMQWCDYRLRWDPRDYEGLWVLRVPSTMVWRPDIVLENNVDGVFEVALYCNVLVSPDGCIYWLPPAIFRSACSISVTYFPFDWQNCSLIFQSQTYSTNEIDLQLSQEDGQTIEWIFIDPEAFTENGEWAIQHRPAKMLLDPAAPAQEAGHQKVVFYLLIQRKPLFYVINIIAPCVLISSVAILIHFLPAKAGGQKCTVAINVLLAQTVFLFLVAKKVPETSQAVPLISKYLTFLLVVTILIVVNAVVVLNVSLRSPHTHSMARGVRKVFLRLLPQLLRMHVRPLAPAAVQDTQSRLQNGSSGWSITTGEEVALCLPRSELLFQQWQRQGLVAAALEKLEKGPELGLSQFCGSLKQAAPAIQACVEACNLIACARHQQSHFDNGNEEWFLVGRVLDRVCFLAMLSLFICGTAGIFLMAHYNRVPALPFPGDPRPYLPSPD
Target sequence in this assay (P11230 24-501, further chain): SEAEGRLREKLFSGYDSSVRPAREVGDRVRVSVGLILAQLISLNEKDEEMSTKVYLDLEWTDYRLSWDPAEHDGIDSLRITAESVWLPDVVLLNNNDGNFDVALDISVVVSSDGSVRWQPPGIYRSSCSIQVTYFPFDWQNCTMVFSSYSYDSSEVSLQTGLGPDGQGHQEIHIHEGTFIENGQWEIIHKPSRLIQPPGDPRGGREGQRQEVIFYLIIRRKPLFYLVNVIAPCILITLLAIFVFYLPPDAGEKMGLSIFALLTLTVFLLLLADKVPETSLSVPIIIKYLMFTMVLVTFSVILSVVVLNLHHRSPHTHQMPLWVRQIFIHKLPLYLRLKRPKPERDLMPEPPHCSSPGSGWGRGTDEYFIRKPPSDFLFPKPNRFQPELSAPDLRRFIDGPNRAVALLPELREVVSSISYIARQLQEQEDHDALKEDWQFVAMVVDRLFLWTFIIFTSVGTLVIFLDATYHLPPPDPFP

Chain of Acetylcholine receptor proteins (AchR) (P02708 21-457): as the sequence (P02708 21-457) above

| Compound | weight of mice (BALB/c mice; all groups, 7 days after administration) | acute toxicity (BALB/c mice; up to 25 mg/kg IM, 7 days) | OD (AchR [1]; ELISA of selected 11-mer (L2) peptide phages on AchR, Spep-2 positive control) | OD (AchR [1]; ELISA of selected 14-mer (L3) peptide phages on AchR, Spep-2 positive control) | OD (AchR [1]; phage ELISA, 5 μg/ml AchR, 4th and 5th round biopanning phages) | AchR binding affinity ([2]; SPR, 10 μM peptides, compared with Synake) | AchR binding affinity superior to that of Synake ([2]; from Kd values) | toxicity (WST assay) (TE671 cells) | IC50 (AchR [3]) [nM] | AchR inhibitory effect (AchR [3]; peptide 0.5 μM, TE671 cells) [%] | AchR inhibitory effect (AchR [3]; peptide 5 μM, TE671 cells) [%] | AchR inhibitory rate (AchR [3]; nicotine 400 μM, peptide 20 μM, TE671 cells) | AchR inhibition (AchR [3]; nicotine 400 μM, peptide 70 μM) | AchR inhibition (AchR [3]; nicotine 400 μM, peptide 80 μM) [%] | nicotinic acetylcholine receptor inhibitory effects (AchR [3]; nicotine treatment, compared with Synake, TE671 cells) |
| --- | --- | --- | --- | --- | --- | --- | --- | --- | --- | --- | --- | --- | --- | --- | --- |
| CCCCCCCCCCCCCCCC(=O)N[C@@H](CO)C(=O)N[C@@H](CC(N)=O)C(=O)N[C@H](C(=O)N[C@@H](CCCCN)C(=O)N[C@@H](CCCNC(=N)N)C(=O)N[C@@H](CCCCN)C(=O)N[C@@H](CCCNC(=N)N)C(=O)NCC(=O)N[C@@H](CCCNC(=N)N)C(=O)N[C@@H](CS)C(=O)N[C@@H](CCCCN)C(=O)N1CCC[C@H]1C(=O)N[C@@H](Cc1ccc(O)cc1)C(=O)N[C@@H](CCCNC(=N)N)C(=O)O)C(C)C [Palmitoyl-L3-37] (Palmitoyl-SNVKRKRGRCKPYR-OH) | gradually increased | no toxicity was observed | – | – | – | – | – | – | – | – | – | – | – | – | – |
| WTWKGRKSLLR [Spep-2, WTWKGRKSLLR] | – | – | 0.303 | 0.303 | 0.303 | high AchR binding affinity compared with Synake | about 2,000 times | no toxicity | 750 | 90 | 100 | about 10% | could not inhibit | 100 | excellent nicotinic acetylcholine receptor inhibitory effects |

— US20260000597A1 (priority 2018, published 2026)
